In ChEMBL document CHEMBL1201862, “PubChem BioAssay data set” (2004):
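Protocol summary: plate cells (96-well), add compound at 5 concentrations, incubate 48 h, interpolate endpoints linearly. Abbreviation: GI50, concentration required for 50% inhibition of growth.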 Activity calls are given as the source filed them. No stated cut-off is given here; in the data, active = GI50 up to about 1.1 µM and inactive = higher.

How the values were obtained:
Assay in all cases: NCI anticancer screen, dose series, 48 h
NCI-H522 = system: NCI-H522
MDA-MB-435 = system: MDA-MB-435
SF-539 = system: SF-539
IGROV-1 = system: IGROV-1
NCI/ADR-RES = system: NCI/ADR-RES
UO-31 = system: UO-31
HOP-62 = system: HOP-62
SNB-19 = system: SNB-19
RXF 393 = system: RXF 393
OVCAR-8 = system: OVCAR-8
MOLT-4 = system: MOLT-4
MDA-N = system: MDA-N
HCT-116 = system: HCT-116
NCI-H23 = system: NCI-H23
TK-10 = system: TK-10
HCT-15 = system: HCT-15
A549 = system: A549
OVCAR-3 = system: OVCAR-3
SK-MEL-28 = system: SK-MEL-28

SMILES	GI50 (NCI-H522)	GI50 (MDA-MB-435)	GI50 (SF-539)	GI50 (IGROV-1)	GI50 (NCI/ADR-RES)	GI50 (UO-31)	GI50 (HOP-62)	GI50 (SNB-19)	GI50 (RXF 393)	GI50 (OVCAR-8)	GI50 (MOLT-4)	GI50 (MDA-N)	GI50 (HCT-116)	GI50 (NCI-H23)	GI50 (TK-10)	GI50 (HCT-15)	GI50 (A549)	GI50 (OVCAR-3)	GI50 (SK-MEL-28)
CS(=N)(=O)CCC(N)P(=O)(O)O (stereo unspecified)	> 100 µM (inactive)	> 100 µM (inactive)	> 100 µM (inactive)	> 100 µM (inactive)	> 100 µM (inactive)	> 100 µM (inactive)	> 100 µM (inactive)	> 100 µM (inactive)	> 100 µM (inactive)	> 100 µM (inactive)	> 100 µM (inactive)	> 100 µM (inactive)	> 100 µM (inactive)	> 100 µM (inactive)	> 100 µM (inactive)	> 100 µM	> 100 µM (inactive)	> 100 µM (inactive)	> 100 µM (inactive)
O=C(/C=C/c1ccc(O)c(O)c1)OCc1ccccc1 [BENZYL CAFFEATE]	0.809 µM (active)	6.27 µM (inactive)	7.06 µM (inactive)	3.38 µM (inactive)	15.8 µM (inactive)	13.7 µM (inactive)	25.6 µM (inactive)	27.6 µM (inactive)	16.8 µM (inactive)	–	2.28 µM (inactive)	4.4 µM (inactive)	13.4 µM (inactive)	14.8 µM (inactive)	15.4 µM (inactive)	5.4 µM	19.2 µM (inactive)	11 µM (inactive)	6.37 µM (inactive)
Cc1ccc2nc(-n3c(/C=C/c4ccccc4O)nc4ccccc4c3=O)sc2c1	> 100 µM (inactive)	> 100 µM (inactive)	–	> 100 µM (inactive)	> 100 µM (inactive)	> 100 µM (inactive)	> 100 µM (inactive)	> 100 µM (inactive)	> 100 µM (inactive)	> 100 µM (inactive)	> 100 µM (inactive)	> 100 µM (inactive)	> 100 µM (inactive)	> 100 µM (inactive)	> 100 µM (inactive)	> 100 µM	> 100 µM (inactive)	> 100 µM (inactive)	> 100 µM (inactive)
COC(CN(C)C(=O)C(C)NC(=O)c1ccccc1)OC (stereo unspecified)	> 100 µM (inactive)	> 100 µM (inactive)	> 100 µM (inactive)	> 100 µM (inactive)	> 100 µM (inactive)	–	–	–	> 100 µM (inactive)	> 100 µM (inactive)	> 100 µM (inactive)	> 100 µM (inactive)	> 100 µM (inactive)	> 100 µM (inactive)	> 100 µM (inactive)	> 100 µM	> 100 µM (inactive)	–	–
OC(c1ccccc1)c1c(-c2ccccc2)oc(-c2ccccc2)c1C(O)c1ccccc1 (stereo unspecified)	3.15 µM (inactive)	8.04 µM (inactive)	16.7 µM (inactive)	14 µM (inactive)	9.02 µM (inactive)	10.6 µM (inactive)	14.4 µM (inactive)	14.8 µM (inactive)	6.5 µM (inactive)	–	5.06 µM (inactive)	9.1 µM (inactive)	5.65 µM (inactive)	9.06 µM (inactive)	15.6 µM (inactive)	12.1 µM	5.73 µM (inactive)	5.73 µM (inactive)	14.2 µM (inactive)
COc1ccc(N[C@H](C[S+]([O-])c2ccc(C)cc2)C(F)(F)F)cc1 (stereo partly specified)	> 100 µM (inactive)	> 100 µM (inactive)	> 100 µM (inactive)	> 100 µM (inactive)	> 100 µM (inactive)	> 100 µM (inactive)	–	> 100 µM (inactive)	> 100 µM (inactive)	> 100 µM (inactive)	> 100 µM (inactive)	> 100 µM (inactive)	> 100 µM (inactive)	> 100 µM (inactive)	> 100 µM (inactive)	> 100 µM	> 100 µM (inactive)	> 100 µM (inactive)	> 100 µM (inactive)
O=C(O)CCc1ccc2c(c1)CC1(Cc3ccccc3C1)C2	> 100 µM (inactive)	> 100 µM (inactive)	> 100 µM (inactive)	> 100 µM (inactive)	> 100 µM (inactive)	> 100 µM (inactive)	> 100 µM (inactive)	–	> 100 µM (inactive)	> 100 µM (inactive)	> 100 µM (inactive)	> 100 µM (inactive)	> 100 µM (inactive)	> 100 µM (inactive)	> 100 µM (inactive)	> 100 µM	> 100 µM (inactive)	> 100 µM (inactive)	–
COC(NC(=O)Nc1ccccc1C)(C(F)(F)F)C(F)(F)F	30.4 µM (inactive)	> 100 µM (inactive)	> 100 µM (inactive)	> 100 µM (inactive)	> 100 µM (inactive)	> 100 µM (inactive)	> 100 µM (inactive)	44.4 µM (inactive)	1.21 µM (inactive)	> 100 µM (inactive)	> 100 µM (inactive)	> 100 µM (inactive)	> 100 µM (inactive)	81.5 µM (inactive)	> 100 µM (inactive)	–	> 100 µM (inactive)	> 100 µM (inactive)	> 100 µM (inactive)
COC1(OC)C(/C(N)=C\O)=NC(C)(C)N1O	> 100 µM (inactive)	> 100 µM (inactive)	> 100 µM (inactive)	> 100 µM (inactive)	> 100 µM (inactive)	> 100 µM (inactive)	> 100 µM (inactive)	> 100 µM (inactive)	> 100 µM (inactive)	> 100 µM (inactive)	66.5 µM (inactive)	> 100 µM (inactive)	> 100 µM (inactive)	> 100 µM (inactive)	–	–	> 100 µM (inactive)	29.9 µM (inactive)	> 100 µM (inactive)
Clc1cccc(Cl)c1/C=N/C12CC3CC(CC(C3)C1)C2	> 10 µM (inactive)	> 10 µM (inactive)	> 10 µM (inactive)	> 10 µM (inactive)	> 10 µM (inactive)	–	> 10 µM (inactive)	> 10 µM (inactive)	> 10 µM (inactive)	> 10 µM (inactive)	> 10 µM (inactive)	> 10 µM (inactive)	> 10 µM (inactive)	> 10 µM (inactive)	> 10 µM (inactive)	> 10 µM	> 10 µM (inactive)	> 10 µM (inactive)	> 10 µM (inactive)
COc1ccc(CNNC(=O)c2cc[n+]([BH2-]C#N)cc2)cc1OC	> 100 µM (inactive)	> 100 µM (inactive)	> 100 µM (inactive)	> 100 µM (inactive)	> 100 µM (inactive)	> 100 µM (inactive)	–	> 100 µM (inactive)	> 100 µM (inactive)	> 100 µM (inactive)	> 100 µM (inactive)	> 100 µM (inactive)	> 100 µM (inactive)	–	> 100 µM (inactive)	> 100 µM	> 100 µM (inactive)	> 100 µM (inactive)	> 100 µM (inactive)
CC(=O)OCC1=C(C)C[C@H]([C@@H](COC(C)=O)C2CCC3C4C[C@H]5O[C@]56CC=CC(=O)[C@]6(C)C4CC[C@@]32C)OC1=O (stereo partly specified)	0.134 µM (active)	0.153 µM (active)	–	0.184 µM (active)	0.185 µM (active)	0.993 µM (active)	0.634 µM (active)	0.681 µM (active)	0.369 µM (active)	0.15 µM (active)	0.0204 µM (active)	0.175 µM (active)	0.097 µM (active)	0.37 µM (active)	0.993 µM (active)	0.083 µM	1.39 µM (inactive)	0.109 µM (active)	0.3 µM (active)
N/N=C(/CC(O)(C(F)(F)F)C(F)(F)F)c1ccccc1	> 10 µM (inactive)	> 10 µM (inactive)	> 10 µM (inactive)	> 10 µM (inactive)	> 10 µM (inactive)	–	> 10 µM (inactive)	> 10 µM (inactive)	> 10 µM (inactive)	> 10 µM (inactive)	> 10 µM (inactive)	> 10 µM (inactive)	> 10 µM (inactive)	> 10 µM (inactive)	> 10 µM (inactive)	> 10 µM	> 10 µM (inactive)	7.4 µM (inactive)	> 10 µM (inactive)
Nn1c(SCC(=O)O)nc2ccccc2c1=O	> 100 µM (inactive)	> 100 µM (inactive)	> 100 µM (inactive)	> 100 µM (inactive)	> 100 µM (inactive)	> 100 µM (inactive)	–	> 100 µM (inactive)	> 100 µM (inactive)	> 100 µM (inactive)	> 100 µM (inactive)	> 100 µM (inactive)	> 100 µM (inactive)	> 100 µM (inactive)	> 100 µM (inactive)	> 100 µM	> 100 µM (inactive)	> 100 µM (inactive)	> 100 µM (inactive)
C1=C2SSC3=CC=C(SSc4ccc(s4)SSC4=CC=C(SSC(=C1)S2)S4)S3	> 100 µM (inactive)	> 100 µM (inactive)	–	> 100 µM (inactive)	> 100 µM (inactive)	> 100 µM (inactive)	> 100 µM (inactive)	> 100 µM (inactive)	> 100 µM (inactive)	> 100 µM (inactive)	> 100 µM (inactive)	> 100 µM (inactive)	> 100 µM (inactive)	> 100 µM (inactive)	> 100 µM (inactive)	> 100 µM	> 100 µM (inactive)	> 100 µM (inactive)	> 100 µM (inactive)
CCOC(=O)[C@@H]1ON2O[C@H](OC3CCCC3(c3ccccc3)c3ccccc3)C[C@H]3OC(=O)[C@@H]1C32 (stereo partly specified)	36.4 µM (inactive)	30.1 µM (inactive)	65 µM (inactive)	33.7 µM (inactive)	31.8 µM (inactive)	37.6 µM (inactive)	> 100 µM (inactive)	–	11.1 µM (inactive)	35.3 µM (inactive)	45 µM (inactive)	43.3 µM (inactive)	73.3 µM (inactive)	27 µM (inactive)	81.3 µM (inactive)	48.3 µM	27.8 µM (inactive)	40.9 µM (inactive)	–
